Paper PMC7909954 (eLife, 2021)
“And” between values parts separate entries of the source, which are not always exact repeats. Equal values may be shown once. “Also recorded” adds a separate entry of the source.

Tests used:
330 non-olfactory GPCRs = assay: PRESTO-Tango GPCRome β-arrestin recruitment off-target screen; assay type: cell-based; conditions: 3 μM, follow-up concentration–response
Procedure: To identify potential off-target activity of MP1207, we used the National Institutes of Mental Health Psychoactive Drug Screen Program. MP1207 was first tested for activity against 330 non-olfactory GPCRs using the PRESTO-Tango GPCRome screening β-arrestin recruitment assay at 3 μM MP1207. The activity at each receptor was measured in quadruplicate.
Screening of compounds was accomplished using previously described methods with several modifications ([Kroeze et al., 2015]). First, HTLA cells were plated in DMEM with 2% dialyzed FBS and 10 U/mL penicillin-streptomycin. Next, the cells were transfected using an in-plate PEI method ([Longo et al., 2013]). PRESTO-Tango receptor DNAs were resuspended in OptiMEM and hybridized with PEI prior to dilution and distribution into 384-well plates and subsequent addition to cells. After overnight incubation, drugs diluted in DMEM with 1% dialyzed FBS were added to cells without replacement of the medium. The remaining steps of the PRESTO-Tango protocol were followed as previously described.
Appendix 1—figure 6. […] MP1207 was screened against 330 non-olfactory GPCRs for agonism in the arrestin recruitment TANGO assay. […] MP1207 induces an increase in signal twofold over basal at opioid receptors predominantly at KOR and DOR and much less at MOR.

[1] = system: MOR KO, KOR KO and DOR KO mice; assay: 55°C warm-water tail-withdrawal assay in opioid receptor knock out mice; assay type: in vivo, mouse
MOR = MOR (Homo sapiens, UniProt P35372)
MOR, sequence (P35372 whole entry): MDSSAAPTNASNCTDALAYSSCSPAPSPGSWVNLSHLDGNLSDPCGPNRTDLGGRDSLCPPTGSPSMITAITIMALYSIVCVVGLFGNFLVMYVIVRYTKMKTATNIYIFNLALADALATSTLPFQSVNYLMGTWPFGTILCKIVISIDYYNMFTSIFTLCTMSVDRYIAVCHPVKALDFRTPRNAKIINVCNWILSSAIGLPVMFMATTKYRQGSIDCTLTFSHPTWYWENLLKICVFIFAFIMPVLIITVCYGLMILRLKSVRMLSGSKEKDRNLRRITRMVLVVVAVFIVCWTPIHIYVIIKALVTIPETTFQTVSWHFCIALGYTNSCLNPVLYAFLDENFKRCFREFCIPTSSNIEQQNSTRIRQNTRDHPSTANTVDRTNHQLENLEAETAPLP

[2] = DOR KO mice, 100 nmol i.c.v. in 50% DMSO, group mean n=8
[3] = DOR KO mice, 100 nmol i.c.v. in 50% DMSO, individual mouse
[4] = KOR KO mice, 100 nmol i.c.v. in 50% DMSO, group mean n=8
[5] = KOR KO mice, 100 nmol i.c.v. in 50% DMSO, individual mouse
[6] = KOR KO mice, 100 nmol i.c.v. in 50% DMSO, group mean n=6
[7] = KOR KO mice, 100 nmol i.c.v., per mouse
[8] = MP1207 30 nmol icv, MP1208 35 nmol icv

For `NCc1cccc(C(=O)N[C@@H]2CCC3C4Cc5ccc(O)c6c5[C@@]3(CCN4CC3CC3)C2O6)c1` (stereo partly drawn) [MP1207, 3-(Aminomethyl)-N-((7R,12bS)−3-(cyclopropylmethyl)−9-hydroxy-2,3,4,4a,5,6,7,7a-octahydro-1H-4,12-methanobenzofuro[3,2-e]isoquinolin-7-yl)benzamide], the “agonism at 330 non-olfactory GPCRs (in words)” value (330 non-olfactory GPCRs) was “selective for opioid receptors; also recorded: no potent activity was confirmed”, the “%A-10 min” value [1, 2] was 77.68% and the “tail-withdrawal latency, 10 min” value [1, 2] was 12.075 s. The “%A-10 min” value [1, 3] was 100% and 14.62% and 6.82%, the “tail-withdrawal latency, 10 min” value [1, 3] was 15 s and 3.9 s and 2.7 s and the “%A-20 min” value [1, 2] was 75.4713%. The “tail-withdrawal latency, 20 min” value [1, 2] was 11.775 s, the “%A-20 min” value [1, 3] was 100% and 91.85% and 84.33% and 20.77% and 6.82% and the “tail-withdrawal latency, 20 min” value [1, 3] was 15 s and 13.9 s and 12.9 s and 4.7 s and 2.7 s. The “%A-30 min” value [1, 2] was 78.53%, the “tail-withdrawal latency, 30 min” value [1, 2] was 12.1875 s and the “%A-30 min” value [1, 3] was 100% and 13.85% and 14.39%. The “tail-withdrawal latency, 30 min” value [1, 3] was 15 s and 3.8 s and 3.7 s, the “%A-40 min” value [1, 2] was 46.6687% and the “tail-withdrawal latency, 40 min” value [1, 2] was 7.925 s. The “%A-40 min” value [1, 3] was 100% and 51.85% and 38.64% and 23.13% and 45.52% and 89.78% and 12.31% and 12.12%, the “tail-withdrawal latency, 40 min” value [1, 3] was 15 s and 8.5 s and 6.9 s and 4.7 s and 7.7 s and 13.6 s and 3.6 s and 3.4 s and the “%A-50 min” value [1, 2] was 38.3875%. For the same compound, the “tail-withdrawal latency, 50 min” value [1, 2] was 6.8 s, the “%A-50 min” value [1, 3] was 62.12% and 17.04% and 35.61% and 100% and 29.1% and 37.96% and 17.69% and 7.58% and the “tail-withdrawal latency, 50 min” value [1, 3] was 10 s and 3.8 s and 6.5 s and 15 s and 5.5 s and 4.3 s and 2.8 s. For the same compound, the “%A-60 min” value [1, 2] was 43.0038%, the “tail-withdrawal latency, 60 min” value [1, 2] was 7.425 s and the “%A-60 min” value [1, 3] was 62.12% and 55.56% and 25% and 100% and 36.57% and 36.5% and 16.92% and 11.36%. The “tail-withdrawal latency, 60 min” value [1, 3] was 10 s and 9 s and 5.1 s and 15 s and 6.5 s and 6.3 s and 4.2 s and 3.3 s, the “%A-70 min” value [1, 2] was 13.2125% and the “tail-withdrawal latency, 70 min” value [1, 2] was 3.4375 s. The “%A-70 min” value [1, 3] was 10.61% and 9.63% and 20.45% and 13.43% and 5.97% and 19.71% and 9.23% and 16.67%, the “tail-withdrawal latency, 70 min” value [1, 3] was 3.2 s and 2.8 s and 4.5 s and 3.4 s and 2.4 s and 4 s and the “%A-80 min” value [1, 2] was 8.564%. For the same compound, the “tail-withdrawal latency, 80 min” value [1, 2] was 2.8125 s, the “%A-80 min” value [1, 3] was 5.3% and 7.41% and 6.82% and 9.7% and 4.48% and 5.84% and 11.54% and 17.42% and the “tail-withdrawal latency, 80 min” value [1, 3] was 2.5 s and 2.7 s and 2.9 s and 2.2 s and 2.1 s and 3.5 s and 4.1 s. The “%A-90 min” value [1, 2] was 3.185%, the “tail-withdrawal latency, 90 min” value [1, 2] was 1.95 s and the “%A-90 min” value [1, 3] was 3.03% and 3.7% and 0% and 5.11% and 13.64%. For the same compound, the “tail-withdrawal latency, 90 min” value [1, 3] was 2.2 s and 2 s and 1.5 s and 1.4 s and 1.1 s and 1.8 s and 3.6 s, the “%A-100 min” value [1, 2] was 2.474% and the “tail-withdrawal latency, 100 min” value [1, 2] was 1.925 s. For the same compound, the “%A-100 min” value [1, 3] was 0% and 2.22% and 0.75% and 2.24% and 0.73% and 13.85%, the “tail-withdrawal latency, 100 min” value [1, 3] was 1.6 s and 1.8 s and 1.4 s and 1.7 s and 1.9 s and 3.8 s and the “%A-110 min” value [1, 2] was 0.555%. For the same compound, the “tail-withdrawal latency, 110 min” value [1, 2] was 1.6125 s, the “%A-110 min” value [1, 3] was 0% and 2.22% and 1.49% and 0.73% and the “tail-withdrawal latency, 110 min” value [1, 3] was 1.3 s and 1.8 s and 1.6 s and 1.4 s and 1.9 s and 1.7 s. For the same compound, the “%A-10 min” value [1, 4] was 63.4062%, the “tail-withdrawal latency, 10 min” value [1, 4] was 10.1 s and the “%A-10 min” value [1, 5] was 100% and 52.52% and 98.5% and 0% and 0.76%. The “tail-withdrawal latency, 10 min” value [1, 5] was 15 s and 8.4 s and 14.8 s and 1.8 s and 1.9 s, the “%A-20 min” value [1, 4] was 39.6638% and the “tail-withdrawal latency, 20 min” value [1, 4] was 6.8125 s. For the same compound, the “%A-20 min” value [1, 5] was 34.59% and 36.76% and 15.83% and 23.31% and 0% and 6.82%, the “tail-withdrawal latency, 20 min” value [1, 5] was 6.3 s and 6.4 s and 3.3 s and 4.8 s and 1 s and 2.7 s and the “%A-30 min” value [1, 4] was 26.1938%. For the same compound, the “tail-withdrawal latency, 30 min” value [1, 4] was 5.125 s, the “%A-30 min” value [1, 5] was 21.8% and 44.85% and 16.55% and 0% and 4.55% and the “tail-withdrawal latency, 30 min” value [1, 5] was 4.6 s and 7.5 s and 3.4 s and 2.2 s and 2.4 s. The “%A-40 min” value [1, 4] was 17.335%, the “tail-withdrawal latency, 40 min” value [1, 4] was 3.9125 s and the “%A-40 min” value [1, 5] was 14.29% and 16.91% and 15.83% and 12.78% and 7.81% and 6.82%. The “tail-withdrawal latency, 40 min” value [1, 5] was 3.6 s and 3.7 s and 3.3 s and 3.4 s and 3.2 s and 2.7 s, the “%A-50 min” value [1, 4] was 20.3588% and the “tail-withdrawal latency, 50 min” value [1, 4] was 4.2125 s. The “%A-50 min” value [1, 5] was 11.28% and 27.21% and 10.07% and 32.33% and 0% and 6.06%, the “tail-withdrawal latency, 50 min” value [1, 5] was 3.2 s and 5.1 s and 2.5 s and 6 s and 1.3 s and 2.6 s and the “%A-60 min” value [1, 4] was 11.2062%. For the same compound, the “tail-withdrawal latency, 60 min” value [1, 4] was 3.0875 s, the “%A-60 min” value [1, 5] was 3.76% and 12.5% and 6.47% and 0.75% and 6.25% and 1.52% and the “tail-withdrawal latency, 60 min” value [1, 5] was 2.2 s and 3.1 s and 2 s and 1.8 s and 3 s. The “%A-70 min” value [1, 4] was 9.87%, the “tail-withdrawal latency, 70 min” value [1, 4] was 2.85 s and the “%A-70 min” value [1, 5] was 5.26% and 19.85% and 3.6% and 7.52% and 0% and 10.61%. The “tail-withdrawal latency, 70 min” value [1, 5] was 2.4 s and 4.1 s and 1.6 s and 2.7 s and 1.8 s and 3.2 s, the “%A-80 min” value [1, 4] was 8.631% and the “tail-withdrawal latency, 80 min” value [1, 4] was 2.725 s. For the same compound, the “%A-80 min” value [1, 5] was 1.5% and 30.88% and 2.16% and 12.78% and 3.91% and 8.33%, the “tail-withdrawal latency, 80 min” value [1, 5] was 1.9 s and 5.6 s and 1.4 s and 3.4 s and 2.7 s and 2.9 s and the “%A-90 min” value [1, 4] was 1.379%. The “tail-withdrawal latency, 90 min” value [1, 4] was 1.7125 s, the “%A-90 min” value [1, 5] was 0% and 0.74% and 0.72% and 0.78% and 0.76% and the “tail-withdrawal latency, 90 min” value [1, 5] was 1.5 s and 1.2 s and 1.6 s and 2.3 s and 1.9 s. For the same compound, the “%A-100 min” value [1, 6] was 1.217%, the “tail-withdrawal latency, 100 min” value [1, 6] was 1.55 s and the “%A-100 min” value [1, 5] was 0.75% and 1.47% and 2.16% and 0%. The “tail-withdrawal latency, 100 min” value [1, 5] was 1.8 s and 1.6 s and 1.4 s and 1.5 s, the “%A-110 min” value [1, 6] was 0.365% and the “tail-withdrawal latency, 110 min” value [1, 6] was 1.467 s. For the same compound, the “%A-110 min” value [1, 5] was 0% and 0.74% and 0.72%, the “tail-withdrawal latency, 110 min” value [1, 5] was 1.7 s and 1.5 s and 1.2 s and the “%A-10 min” value [1, 7] was 100% and 55.47%. For the same compound, the “tail-withdrawal latency, 10 min” value [1, 7] was 15 s and 8.9 s, the “%A-20 min” value [1, 7] was 100% and the “tail-withdrawal latency, 20 min” value [1, 7] was 15 s. The “%A-30 min” value [1, 7] was 38.69% and 61.31%, the “tail-withdrawal latency, 30 min” value [1, 7] was 6.6 s and 9.7 s and the “%A-40 min” value [1, 7] was 31.39% and 32.85%. For the same compound, the “tail-withdrawal latency, 40 min” value [1, 7] was 5.6 s and 5.8 s, the “%A-50 min” value [1, 7] was 45.26% and 30.66% and the “tail-withdrawal latency, 50 min” value [1, 7] was 7.5 s and 5.5 s. For the same compound, the “%A-60 min” value [1, 7] was 13.14% and 45.26%, the “tail-withdrawal latency, 60 min” value [1, 7] was 3.1 s and 7.5 s and the “%A-70 min” value [1, 7] was 19.71% and 12.41%. The “tail-withdrawal latency, 70 min” value [1, 7] was 4 s and 3 s, the “%A-80 min” value [1, 7] was 8.03% and 1.46% and the “tail-withdrawal latency, 80 min” value [1, 7] was 2.4 s and 1.5 s. For the same compound, the “%A-90 min” value [1, 7] was 2.92% and 5.11%, the “tail-withdrawal latency, 90 min” value [1, 7] was 1.7 s and 2 s and the “%A-100 min” value [1, 7] was 0% and 2.92%. The “tail-withdrawal latency, 100 min” value [1, 7] was 1.3 s and 1.7 s, the “%A-110 min” value [1, 7] was 0% and 0.73% and the “tail-withdrawal latency, 110 min” value [1, 7] was 1.3 s and 1.4 s. The “antinociception in DOR KO mice vs WT” value [1, 8] was “remained intact”, the “antinociception in KOR KO mice vs WT” value [1, 8] was “attenuated” and the “antinociception in MOR KO mice vs WT” value [1, 8] was “attenuated”. The “arrestin recruitment at hMOR (in words)” value (MOR) was “completely abolished”.
